The source of these data is PMC5352738, “Characterization of three pyranose dehydrogenase isoforms from the litter-decomposing basidiomycete Leucoagaricus meleagris (syn. Agaricus meleagris)” (Applied Microbiology and Biotechnology, 2016).

Molecules are shown by their SMILES.

Assay type in all cases: biochemical
In assay [1] the target is T1, AmPDH1 (Macropsalliota meleagris, UniProt Q3L245).
T1 construct: gene pdh1; full-length pdh1 (602 aa precursor) in pPICZB-His6, His6-tag kept, secreted from Pichia pastoris X33; N-glycosylated monomer, ~65 kDa deglycosylated; covalent FAD
The assay is described as follows: steady-state kinetics, absorbance at […] nm. The note with it: read-out: AmPDH1 / K m.

Assay [2] has as its target T1, AmPDH1. The assay is described as follows: steady-state ferrocenium assay, […] nm. The note with it: electron donor; 0.2 mM ferrocenium, 50 mM Na phosphate pH 7.5, 30 °C; read-out: AmPDH1 / K m.
For the next assay, the target named is T2, AmPDH3 (Macropsalliota meleagris, UniProt Q0R4L2).
T2 construct: gene pdh3; full-length pdh3 (600 aa precursor) in pPICZB-His6, His6-tag kept, secreted from Pichia pastoris X33; strongly N-glycosylated, ~65 kDa deglycosylated; standard yellow form with covalent FAD
The assay is described as follows: steady-state kinetics, absorbance at […] nm. The settings on record: electron acceptor; 25 mM D-glucose, 100 mM Na borate pH 8.5, 30 °C; read-out: AmPDH3 / K m.

A further assay addresses T3, AmPDH2 (Macropsalliota meleagris, UniProt Q3L243).
T3 construct: gene pdh2; full-length pdh2 (600 aa precursor) in pPICZB-His6, His6-tag kept, secreted from Pichia pastoris X33; N-glycosylated, ~65 kDa deglycosylated; covalent FAD
Kind of assay: steady-state kinetics, absorbance at […] nm. The note with it: electron acceptor; 25 mM D-glucose, 100 mM Na borate pH 8.5, 30 °C; read-out: AmPDH2 / K m.

The target of assay [3] is T1, AmPDH1. The assay is described as follows: steady-state kinetics, absorbance at […] nm. The settings on record: electron acceptor; 25 mM D-glucose, 100 mM Na borate pH 8.5, 30 °C; read-out: AmPDH1 / K m.

T1 sequence (Q3L245 26-602): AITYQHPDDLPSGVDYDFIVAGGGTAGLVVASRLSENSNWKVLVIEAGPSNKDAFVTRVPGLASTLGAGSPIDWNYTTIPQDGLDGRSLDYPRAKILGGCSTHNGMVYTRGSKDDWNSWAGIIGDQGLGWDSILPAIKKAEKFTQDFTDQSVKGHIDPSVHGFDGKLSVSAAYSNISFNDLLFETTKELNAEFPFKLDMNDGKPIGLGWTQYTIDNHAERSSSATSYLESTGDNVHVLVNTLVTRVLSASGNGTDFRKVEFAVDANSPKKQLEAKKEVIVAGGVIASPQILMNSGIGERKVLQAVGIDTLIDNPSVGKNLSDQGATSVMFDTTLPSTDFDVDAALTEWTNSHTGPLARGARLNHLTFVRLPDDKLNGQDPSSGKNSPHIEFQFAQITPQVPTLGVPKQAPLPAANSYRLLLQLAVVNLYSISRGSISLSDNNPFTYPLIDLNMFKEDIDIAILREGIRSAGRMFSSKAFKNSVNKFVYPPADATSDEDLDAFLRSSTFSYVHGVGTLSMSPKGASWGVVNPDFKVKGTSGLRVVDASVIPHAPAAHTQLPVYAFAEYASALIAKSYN
T2 sequence (Q0R4L2 26-600): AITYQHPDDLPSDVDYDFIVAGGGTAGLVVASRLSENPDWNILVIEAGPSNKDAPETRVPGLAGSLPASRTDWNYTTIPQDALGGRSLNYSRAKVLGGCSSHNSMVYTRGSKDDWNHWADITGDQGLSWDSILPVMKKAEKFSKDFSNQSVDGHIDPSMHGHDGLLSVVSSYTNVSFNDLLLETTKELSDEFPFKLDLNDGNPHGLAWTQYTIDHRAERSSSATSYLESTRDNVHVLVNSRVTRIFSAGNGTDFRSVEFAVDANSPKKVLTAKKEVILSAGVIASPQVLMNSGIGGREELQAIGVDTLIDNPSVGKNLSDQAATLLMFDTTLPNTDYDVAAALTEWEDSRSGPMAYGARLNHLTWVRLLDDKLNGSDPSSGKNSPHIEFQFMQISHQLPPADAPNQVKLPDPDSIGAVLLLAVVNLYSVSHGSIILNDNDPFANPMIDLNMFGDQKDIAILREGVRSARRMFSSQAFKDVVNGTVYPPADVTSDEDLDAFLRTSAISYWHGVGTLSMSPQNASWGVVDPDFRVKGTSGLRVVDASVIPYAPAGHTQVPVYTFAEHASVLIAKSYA
T3 sequence (Q3L243 26-600): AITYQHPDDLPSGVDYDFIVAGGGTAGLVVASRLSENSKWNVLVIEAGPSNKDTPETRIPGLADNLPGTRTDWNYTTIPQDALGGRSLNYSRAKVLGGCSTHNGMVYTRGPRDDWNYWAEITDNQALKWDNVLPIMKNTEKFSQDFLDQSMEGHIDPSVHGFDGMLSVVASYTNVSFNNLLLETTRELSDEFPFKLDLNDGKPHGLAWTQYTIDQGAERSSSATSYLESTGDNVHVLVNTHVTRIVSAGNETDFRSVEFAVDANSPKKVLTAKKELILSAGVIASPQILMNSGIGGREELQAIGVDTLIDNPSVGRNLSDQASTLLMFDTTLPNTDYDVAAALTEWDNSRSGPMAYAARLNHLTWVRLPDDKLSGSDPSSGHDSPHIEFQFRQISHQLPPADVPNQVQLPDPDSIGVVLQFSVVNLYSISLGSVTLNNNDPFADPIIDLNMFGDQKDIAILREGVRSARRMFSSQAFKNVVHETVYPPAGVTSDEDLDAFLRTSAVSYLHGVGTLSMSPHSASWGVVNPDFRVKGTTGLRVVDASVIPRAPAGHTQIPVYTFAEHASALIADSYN

Consider `O=C1C=CC(=O)C=C1` [1,4-benzoquinone], for which, at AmPDH1 [1], the Km worked out at 1.38 ± 0.28 mM.

`OC[C@H]1OC(O)[C@H](O)[C@@H](O)[C@@H]1O` (stereo partly drawn) [D-glucose]: at AmPDH1 [2], the Km is 820 ± 10 µM.

As to `C1=CCC=C1.C1=CCC=C1.[Fe+3]` [ferrocenium cation], the values for the Km on AmPDH3, at AmPDH2 and on AmPDH1 [3] were 10.3 ± 0.9 µM, 20.1 ± 2.3 µM and 161 ± 38 µM, respectively.
